This note sets out measurements from ChEMBL document CHEMBL4334532, “Cytotoxic p-Terphenyls from a Marine-Derived Nocardiopsis Species” (J Nat Prod, 2019).

Activity calls are given as the source filed them. The calls are words filed in the database; no cut-off is given here.

Test [1] can be described thus: Cytotoxicity against human P6C cells assessed as inhibition of cell growth measured after 72 hrs by MTT assay. The format is functional, cell-based.
For test [2], the system named is K562. Nature of the test: Cytotoxicity against human K562 cells assessed as inhibition of cell growth measured after 72 hrs by CCK-8 assay. Particulars: K562, 72 h. The format is functional, cell-based. In general terms: Tetrazolium assays rely on reduction of a dye to a coloured formazan, in cell work by metabolically active cells.
Test [3] has as its system MCF7. Briefly: Cytotoxicity against human MCF7 cells assessed as inhibition of cell growth measured after 72 hrs by MTT assay. The test is classed as functional, cell-based. Particulars: MCF7, 72 h.
The subject of a further test is L02. Briefly: Cytotoxicity against human LO2 cells assessed as inhibition of cell growth measured after 72 hrs by MTT assay. The test is classed as cell-based. Particulars: L02, 72 h.
In test [4] the test system is A549. Briefly: Cytotoxicity against human A549 cells assessed as inhibition of cell growth measured after 72 hrs by MTT assay. The test is classed as functional, cell-based. Particulars: A549, 72 h.
Another test concerns NCI-H2228. Nature of the test: Cytotoxicity against human NCI-H2228 cells measured after 72 hrs by Celltiter-Glo assay. The test is classed as functional, cell-based. To be noted: NCI-H2228, 72 h. In general terms: Cellular ATP, detected with luciferase, serves as a proxy for viable cell number.
A further test deals with DU-145. Briefly: Cytotoxicity against human DU145 cells measured after 72 hrs by Celltiter-Glo assay. To be noted: DU-145, 72 h. The test is classed as functional, cell-based.
Test [5] in a line: Cytotoxicity against human SPC-A1 cells overexpressing maspin protein measured after 72 hrs by Celltiter-Glo assay. The test is classed as functional, cell-based. Particulars: SPCA1, 72 h.
For the next test, the system named is KARPAS-299. Nature of the test: Cytotoxicity against human KARPAS299 cells measured after 72 hrs by Celltiter-Glo assay. The test is classed as functional, cell-based. To be noted: KARPAS-299, 72 h.
Another test relates to A-431. Nature of the test: Cytotoxicity against human A431 cells measured after 72 hrs by Celltiter-Glo assay. The format is functional, cell-based. Particulars: A-431, 72 h.
In the next test the test system is HL-60. Briefly: Cytotoxicity against human HL60 cells measured after 72 hrs by Celltiter-Glo assay. The test is classed as functional, cell-based. Particulars: HL-60, 72 h.
For a further test, the system named is MDA-MB-468. Briefly: Cytotoxicity against human MDA-MB-468 cells measured after 72 hrs by Celltiter-Glo assay. The format is functional, cell-based. Particulars: MDA-MB-468, 72 h.
A further test relates to HCC1954. Briefly: Cytotoxicity against human HCC1954 cells measured after 72 hrs by Celltiter-Glo assay. The test is classed as functional, cell-based. Particulars: HCC1954, 72 h.
The subject of a further test is MDA-MB-231. Nature of the test: Cytotoxicity against human MDA-MB-231 cells measured after 72 hrs by Celltiter-Glo assay. To be noted: MDA-MB-231, 72 h. The format is functional, cell-based.
The subject of the next test is NCI-H1975. Briefly: Cytotoxicity against human NCI-H1975 cells harboring EGFR double L858R/T790M mutant measured after 72 hrs by Celltiter-Glo assay. The format is functional, cell-based. Particulars: NCI-H1975, 72 h.
Test [6] has as its system MCF7. Briefly: Cytotoxicity against human MCF7 cells measured after 72 hrs by Celltiter-Glo assay. To be noted: MCF7, 72 h. The test is classed as functional, cell-based.
The test system of a further test is U-87 MG. Nature of the test: Cytotoxicity against human U87 cells measured after 72 hrs by Celltiter-Glo assay. The test is classed as functional, cell-based, U-87MG ATCC.
The next test concerns HCT-116. Briefly: Cytotoxicity against human HCT116 cells measured after 72 hrs by Celltiter-Glo assay. The format is functional, cell-based. To be noted: HCT-116, 72 h.
The subject of another test is HuCCT-1. Briefly: Cytotoxicity against human HuCCT1 cells measured after 72 hrs by Celltiter-Glo assay. The format is functional, cell-based. Particulars: HuCCT-1, 72 h.
Test [7] concerns K562. Nature of the test: Cytotoxicity against human K562 cells measured after 72 hrs by Celltiter-Glo assay. To be noted: K562, 72 h. The test is classed as functional, cell-based.
For the next test, the system named is Hep 3B2. Nature of the test: Cytotoxicity against human Hep3B cells measured after 72 hrs by Celltiter-Glo assay. The format is functional, cell-based.
A further test deals with MKN-45. Nature of the test: Cytotoxicity against human MKN45 cells measured after 72 hrs by Celltiter-Glo assay. The test is classed as functional, cell-based. To be noted: MKN-45, 72 h.
A further test deals with NCI-N87. Briefly: Cytotoxicity against human NCI-N87 cells measured after 72 hrs by Celltiter-Glo assay. The test is classed as functional, cell-based. Particulars: NCI-N87, 72 h.
The subject of another test is A673. Briefly: Cytotoxicity against human A673 cells measured after 72 hrs by Celltiter-Glo assay. The format is functional, cell-based. Particulars: A673, 72 h.
A further test deals with MV4-11. Nature of the test: Cytotoxicity against human MV4-11 cells measured after 72 hrs by Celltiter-Glo assay. The test is classed as functional, cell-based. Particulars: MV4-11, 72 h.
The next test has as its system U-251. Nature of the test: Cytotoxicity against human U251 cells measured after 72 hrs by Celltiter-Glo assay. Particulars: U-251, 72 h. The format is functional, cell-based.
The next test has as its system BT-474. Nature of the test: Cytotoxicity against human BT474 cells measured after 72 hrs by Celltiter-Glo assay. The format is functional, cell-based. Particulars: BT-474, 72 h.
For test [8], the system named is A549. Briefly: Cytotoxicity against human A549 cells measured after 72 hrs by Celltiter-Glo assay. The format is functional, cell-based. To be noted: A549, 72 h.
Another test deals with NCI-H1299. Briefly: Cytotoxicity against human H1299 cells measured after 72 hrs by Celltiter-Glo assay. The format is functional, cell-based. To be noted: NCI-H1299, 72 h.
A further test relates to 143B. Briefly: Cytotoxicity against human 143B cells measured after 72 hrs by Celltiter-Glo assay. The format is functional, cell-based.
The subject of the next test is B16-F10. Nature of the test: Cytotoxicity against mouse B16/F10 cells measured after 72 hrs by Celltiter-Glo assay. The test is classed as functional, cell-based. Particulars: B16-F10, 72 h.
In a further test the test system is HeLa. Briefly: Cytotoxicity against human HeLa cells. The test is classed as functional, cell-based.

Consider `COc1ccc(-c2c(OC)c(O)c(-c3ccc(OC)cc3)c3scnc23)cc1`, for which the IC50 (commonly the concentration needed to halve the response being measured) in [1] is 9.4 µM; in the test with K562 [2] it was 0.77 µM; with MCF7 [3], 6 µM; with L02, 17 µM; with A549 [4] it was 5.1 µM.
Taken in the same sequence, the figures for `COc1ccc(-c2cc(O)c(-c3ccc(OC)cc3)c(OC)c2O)cc1` were > 40 µM, > 40 µM, 30 µM, > 40 µM and > 40 µM.
With `COc1ccc(-c2c3c(c(-c4ccc(OC)cc4)c(O)c2OC)SCC(=O)N3)cc1`, the IC50 (in the test on NCI-H2228; in the test on DU-145; in [5]; with KARPAS-299; with A-431; in the test on HL-60) was > 100 µM throughout. Besides, the concentration for half-maximal inhibition (IC50) in the test with MDA-MB-468, in the test with HCC1954, in the test on MDA-MB-231, in the test on NCI-H1975, with MCF7 [6] and in the test on U-87 MG was > 100 µM each time. Besides, the IC50 with HCT-116, in the test on HuCCT-1, in the test on K562 [7], in the test with Hep 3B2, with MKN-45 and with NCI-N87 was > 100 µM each time. The IC50 in the test on A673, in the test on MV4-11, in the test on U-251, in the test with BT-474, with A549 [8] and in the test on NCI-H1299 was > 100 µM each time. Also, the IC50 in the test with 143B and in the test with B16-F10 was > 100 µM each time.
Consider `COc1ccc(-c2cc(O)c(-c3ccc(OC)cc3)c(OC)c2OC)cc1`, for which the IC50 with NCI-H2228 was 5 µM; with DU-145 it was 1 µM; in test [5], 9.8 µM; in the test with KARPAS-299, > 100 µM; in the test on A-431, > 100 µM; in the test with HL-60, 5 µM. The IC50 in the test on MDA-MB-468 was 0.67 µM; in the test on HCC1954 it was 2 µM; with MDA-MB-231 it was 2 µM; in the test on NCI-H1975, 4.4 µM; in the test with MCF7 [6], 17 µM; with U-87 MG, > 100 µM. Besides, the IC50 with HCT-116 was > 100 µM; in the test with HuCCT-1, > 100 µM; in the test on K562 [7], 8.9 µM; in the test on Hep 3B2, > 100 µM; in the test with MKN-45, 12 µM; with NCI-N87 it was > 100 µM. Also, the IC50 with A673 is 8.9 µM; in the test on MV4-11, 0.77 µM; in the test on U-251 it was > 100 µM; with BT-474, > 100 µM; with A549 [8] it was 9.7 µM; in the test on NCI-H1299, > 100 µM. The results for the half-maximal inhibitory concentration (IC50) with 143B and in the test on B16-F10 were 7.7 µM and > 100 µM, respectively.
With `COc1ccc(-c2c(OC)c(O)c(-c3ccc(OC)cc3)c3sc(CO)nc23)cc1`, the IC50 was 1.7 µM in the test on NCI-H2228; > 100 µM in the test with DU-145; > 100 µM in [5]; > 100 µM with KARPAS-299; 4.6 µM with A-431; 0.38 µM with HL-60. Also, the IC50 was 2.8 µM with MDA-MB-468; 0.1 µM in the test on HCC1954; > 100 µM in the test on MDA-MB-231; > 100 µM in the test with NCI-H1975; 18 µM in the test on MCF7 [6]; > 100 µM in the test with U-87 MG. The IC50 in the test with HCT-116 is > 100 µM; in the test with HuCCT-1, > 100 µM; in the test on K562 [7], 9 µM; in the test on Hep 3B2 it was > 100 µM; in the test on MKN-45 it was > 100 µM; with NCI-N87 it was > 100 µM. Further, the IC50 is > 100 µM with A673; 4 µM with MV4-11; > 100 µM in the test with U-251; 6 µM with BT-474; 7.8 µM with A549 [8]; > 100 µM in the test with NCI-H1299. The IC50 was 5.5 µM in the test on 143B and > 100 µM in the test with B16-F10.
For the compound `COC1=C(c2ccc(OC)cc2)C(=O)C=C(c2ccc(OC)cc2)C1=O`, the IC50 is 0.94 µM in the test with NCI-H2228; 0.52 µM in the test on DU-145; 2 µM in test [5]; > 100 µM in the test with KARPAS-299; > 100 µM in the test with A-431; 0.17 µM in the test on HL-60. The IC50 in the test on MDA-MB-468 is 1.1 µM; in the test with HCC1954, 0.48 µM; in the test with MDA-MB-231 it was 2 µM; in the test on NCI-H1975, 3.1 µM; in the test with MCF7 [6] it was > 100 µM; in the test with U-87 MG, > 100 µM. In addition, the IC50 is 1.9 µM in the test on HCT-116; 0.2 µM in the test on HuCCT-1; 4.8 µM in the test on K562 [7]; > 100 µM in the test on Hep 3B2; 0.49 µM with MKN-45; 1 µM in the test on NCI-N87. The IC50 was determined as 0.76 µM in the test on A673; 0.16 µM with MV4-11; 4.7 µM in the test with U-251; 3.6 µM in the test with BT-474; 0.48 µM in the test with A549 [8]; 0.72 µM in the test on NCI-H1299. Further, the IC50 in the test on 143B was 5 µM; in the test with B16-F10, 0.76 µM. For the same compound, the result with HeLa was Active.
For `COc1cccc2c1C(=O)c1c(O)c3c(c(O)c1C2=O)C[C@@](O)(C(=O)CO)C[C@@H]3O[C@H]1C[C@H](N)[C@H](O)[C@H](C)O1` [DOXORUBICIN], the IC50 worked out at 0.097 µM in the test with NCI-H2228; 0.71 µM in test [1]; 0.051 µM with DU-145; 0.18 µM in test [5]; 0.38 µM in the test with KARPAS-299; 0.33 µM with K562 [2]. Further, the IC50 with A-431 is 0.16 µM; with MDA-MB-468, > 100 µM; in the test on HCC1954, 0.045 µM; with NCI-H1975 it was 0.087 µM; in the test with U-87 MG, 0.11 µM; in the test with HuCCT-1, 0.048 µM. In addition, the IC50 was 0.021 µM in the test on K562 [7]; 16 µM with Hep 3B2; 0.19 µM with MKN-45; 0.047 µM in the test with NCI-N87; 0.1 µM in the test on A673; 0.16 µM in the test with MV4-11. The 50% inhibitory concentration (IC50) was 0.17 µM in the test on U-251; 0.7 µM in the test with L02; 1.9 µM with BT-474; 0.11 µM in the test on A549 [8]; 0.58 µM in the test with A549 [4]; 0.5 µM in the test on NCI-H1299. Moreover, the results for the half-maximal inhibitory concentration (IC50) in the test on 143B and with B16-F10 were 0.1 µM and 0.016 µM, respectively.
